Assay results published in patent US20230398130A1, “METHODS AND COMPOSITIONS FOR DIFFERENTIATING STEM CELLS” (Massachusetts Institute of Technology, priority 2020, published 2023).

Tests used:
ISC-enriched organoids [1] = experiment: Primary screen, 384-well 2.5-D organoid differentiation (ENR+CD, 6 days): carbachol-induced lysozyme secretion (LYZ.S); format: cell-based, murine; conditions: for Dose.FC.LYZ.S (log 2 fold change, carbachol-induced lysozyme secretion) / Dose.FC.LYZ.S (log 2 fold change): vs plate median; for Dose.FC.LYZ.S / Z.LYZ.S / SSMD.LYZ.S / Dose.FC.LYZ.S (log 2 fold change): primary screen; for Dose.FC.LYZ.S: FC vs plate median; for Z.LYZ.S: standard z score; for SSMD.LYZ.S: strictly standardized mean difference
Text: (§1) High-throughput screening.

ISC-enriched organoids [2] = experiment: Primary screen, 384-well 2.5-D organoid differentiation (ENR+CD, 6 days, Target Selective Inhibitor Library, vs whole-plate median): ATP (CellTiter-Glo 3D, CTG); conditions: for Dose.FC.CTG (log 2 fold change, ATP) / Dose.FC.CTG (log 2 fold change): vs plate median; for Dose.FC.CTG: FC vs plate median; for SSMD.CTG: strictly standardized mean difference
ISC-enriched organoids [3] = experiment: Primary screen, 384-well 2.5-D organoid differentiation (ENR+CD, 6 days): basal lysozyme secretion (LYZ.NS); format: cell-based, murine; conditions: for Dose.FC.LYZ.NS (log 2 fold change, basal lysozyme secretion) / Dose.FC.LYZ.NS (log 2 fold change): vs plate median; for Dose.FC.LYZ.NS: FC vs plate median; for Z.LYZ.NS: standard z score of FC; for SSMD.LYZ.NS: strictly standardized mean difference
Text: as §1

[4] = 1st of the 4 dose lines of the treatment (dose not given)
[5] = 2nd of the 4 dose lines of the treatment (dose not given)
[6] = 3rd of the 4 dose lines of the treatment (dose not given)
[7] = 4th of the 4 dose lines of the treatment (dose not given)
[8] = primary screen, 1st of the 4 dose lines of the treatment (dose not given)
[9] = primary screen, 2nd of the 4 dose lines of the treatment (dose not given)
[10] = primary screen, 3rd of the 4 dose lines of the treatment (dose not given)
[11] = primary screen, 4th of the 4 dose lines of the treatment (dose not given)

CCO.N#CC(=C(/N)Sc1ccccc1N)/C(C#N)=C(\N)Sc1ccccc1N [U0126-EtOH]
Dose.FC.LYZ.S (log 2 fold change, carbachol-induced lysozyme secretion) (ISC-enriched organoids [1]; dose 0.08 uM): 0.114
Dose.FC.LYZ.S (log 2 fold change, carbachol-induced lysozyme secretion) (ISC-enriched organoids [1]; dose 0.40 uM): 0.075
Dose.FC.LYZ.S (log 2 fold change, carbachol-induced lysozyme secretion) (ISC-enriched organoids [1]; dose 2.00 uM): −0.071
Dose.FC.LYZ.S (log 2 fold change, carbachol-induced lysozyme secretion) (ISC-enriched organoids [1]; dose 10.00 uM): −0.165
Z.CTG (standard z score) (ISC-enriched organoids [2]; dose 0.08 uM): −0.835
Dose.FC.CTG (log 2 fold change, ATP) (ISC-enriched organoids [2]; dose 0.08 uM): −0.350
Z.CTG (standard z score) (ISC-enriched organoids [2]; dose 0.40 uM): −1.227
Dose.FC.CTG (log 2 fold change, ATP) (ISC-enriched organoids [2]; dose 0.40 uM): −0.514
Z.CTG (standard z score) (ISC-enriched organoids [2]; dose 2.00 uM): −1.138
Dose.FC.CTG (log 2 fold change, ATP) (ISC-enriched organoids [2]; dose 2.00 uM): −0.476
Z.CTG (standard z score) (ISC-enriched organoids [2]; dose 10.00 uM): −1.887
Dose.FC.CTG (log 2 fold change, ATP) (ISC-enriched organoids [2]; dose 10.00 uM): −0.790
Z.LYZ.NS (standard z score) (ISC-enriched organoids [3]; dose 0.08 uM): 0.859
Dose.FC.LYZ.NS (log 2 fold change, basal lysozyme secretion) (ISC-enriched organoids [3]; dose 0.08 uM): 0.099
Z.LYZ.NS (standard z score) (ISC-enriched organoids [3]; dose 0.40 uM): 0.163
Dose.FC.LYZ.NS (log 2 fold change, basal lysozyme secretion) (ISC-enriched organoids [3]; dose 0.40 uM): 0.019
Z.LYZ.NS (standard z score) (ISC-enriched organoids [3]; dose 2.00 uM): −0.389
Dose.FC.LYZ.NS (log 2 fold change, basal lysozyme secretion) (ISC-enriched organoids [3]; dose 2.00 uM): −0.045
Z.LYZ.NS (standard z score) (ISC-enriched organoids [3]; dose 10.00 uM): −1.021
Dose.FC.LYZ.NS (log 2 fold change, basal lysozyme secretion) (ISC-enriched organoids [3]; dose 10.00 uM): −0.117

COc1cc2c(Nc3ccc(NC(=O)c4ccccc4)cc3)ncnc2cc1OCCCN1CCOCC1 [ZM 447439]
Dose.FC.LYZ.S (log 2 fold change, carbachol-induced lysozyme secretion) (ISC-enriched organoids [1]; dose 0.08 uM): 0.171
Dose.FC.LYZ.S (log 2 fold change, carbachol-induced lysozyme secretion) (ISC-enriched organoids [1]; dose 0.40 uM): 0.108
Dose.FC.LYZ.S (log 2 fold change, carbachol-induced lysozyme secretion) (ISC-enriched organoids [1]; dose 2.00 uM): 0.074
Dose.FC.LYZ.S (log 2 fold change, carbachol-induced lysozyme secretion) (ISC-enriched organoids [1]; dose 10.00 uM): −0.132
Z.CTG (standard z score) (ISC-enriched organoids [2]; dose 0.08 uM): 1.222
Dose.FC.CTG (log 2 fold change, ATP) (ISC-enriched organoids [2]; dose 0.08 uM): 0.512
Z.CTG (standard z score) (ISC-enriched organoids [2]; dose 0.40 uM): 0.725
Dose.FC.CTG (log 2 fold change, ATP) (ISC-enriched organoids [2]; dose 0.40 uM): 0.304
Z.CTG (standard z score) (ISC-enriched organoids [2]; dose 2.00 uM): 0.552
Dose.FC.CTG (log 2 fold change, ATP) (ISC-enriched organoids [2]; dose 2.00 uM): 0.231
Z.CTG (standard z score) (ISC-enriched organoids [2]; dose 10.00 uM): −0.574
Dose.FC.CTG (log 2 fold change, ATP) (ISC-enriched organoids [2]; dose 10.00 uM): −0.240
Z.LYZ.NS (standard z score) (ISC-enriched organoids [3]; dose 0.08 uM): 0.896
Dose.FC.LYZ.NS (log 2 fold change, basal lysozyme secretion) (ISC-enriched organoids [3]; dose 0.08 uM): 0.103
Z.LYZ.NS (standard z score) (ISC-enriched organoids [3]; dose 0.40 uM): 0.932
Dose.FC.LYZ.NS (log 2 fold change, basal lysozyme secretion) (ISC-enriched organoids [3]; dose 0.40 uM): 0.107
Z.LYZ.NS (standard z score) (ISC-enriched organoids [3]; dose 2.00 uM): 0.456
Dose.FC.LYZ.NS (log 2 fold change, basal lysozyme secretion) (ISC-enriched organoids [3]; dose 2.00 uM): 0.052
Z.LYZ.NS (standard z score) (ISC-enriched organoids [3]; dose 10.00 uM): −0.695
Dose.FC.LYZ.NS (log 2 fold change, basal lysozyme secretion) (ISC-enriched organoids [3]; dose 10.00 uM): −0.080

CCC(CC)(NC(=O)C(C)C)C(=O)N[C@@H](CCCN=C(N)N)C(=O)NC1(C(=O)NC(c2ccc(F)cc2)c2ccc(F)cc2)CCCC1 [MM-102]
Dose.FC.LYZ.S (ISC-enriched organoids [1]; Dose 0.08 uM): −0.027 log 2 fold change
Dose.FC.LYZ.S (ISC-enriched organoids [1]; Dose 0.40 uM): −0.001 log 2 fold change
Dose.FC.LYZ.S (ISC-enriched organoids [1]; Dose 2.00 uM): −0.035 log 2 fold change
Dose.FC.LYZ.S (ISC-enriched organoids [1]; Dose 10.00 uM): −0.194 log 2 fold change
Z.LYZ.S (ISC-enriched organoids [1]; [4]): −0.177
Z.LYZ.S (ISC-enriched organoids [1]; [5]): −0.009
Z.LYZ.S (ISC-enriched organoids [1]; [6]): −0.226
Z.LYZ.S (ISC-enriched organoids [1]; [7]): −1.252
SSMD.LYZ.S (ISC-enriched organoids [1]; [4]): −0.148
SSMD.LYZ.S (ISC-enriched organoids [1]; [5]): −0.010
SSMD.LYZ.S (ISC-enriched organoids [1]; [6]): −0.218
SSMD.LYZ.S (ISC-enriched organoids [1]; [7]): −0.881
Dose.FC.CTG (ISC-enriched organoids [2]; Dose 0.08 uM, primary screen): −0.205 log 2 fold change
Z.CTG (ISC-enriched organoids [2]; Dose 0.08 uM, standard z score of FC): −0.489
Dose.FC.CTG (ISC-enriched organoids [2]; Dose 0.40 uM, primary screen): −0.132 log 2 fold change
Z.CTG (ISC-enriched organoids [2]; Dose 0.40 uM, standard z score of FC): −0.315
Dose.FC.CTG (ISC-enriched organoids [2]; Dose 2.00 uM, primary screen): −0.233 log 2 fold change
Z.CTG (ISC-enriched organoids [2]; Dose 2.00 uM, standard z score of FC): −0.557
Dose.FC.CTG (ISC-enriched organoids [2]; Dose 10.00 uM, primary screen): −0.403 log 2 fold change
Z.CTG (ISC-enriched organoids [2]; Dose 10.00 uM, standard z score of FC): −0.964
SSMD.CTG (ISC-enriched organoids [2]; [8]): −0.485
SSMD.CTG (ISC-enriched organoids [2]; [9]): −0.493
SSMD.CTG (ISC-enriched organoids [2]; [10]): −0.877
SSMD.CTG (ISC-enriched organoids [2]; [11]): −1.350
Dose.FC.LYZ.NS (ISC-enriched organoids [3]; Dose 0.08 uM, primary screen): −0.025 log 2 fold change
Z.LYZ.NS (ISC-enriched organoids [3]; Dose 0.08 uM): −0.220
Dose.FC.LYZ.NS (ISC-enriched organoids [3]; Dose 0.40 uM, primary screen): −0.010 log 2 fold change
Z.LYZ.NS (ISC-enriched organoids [3]; Dose 0.40 uM): −0.090
Dose.FC.LYZ.NS (ISC-enriched organoids [3]; Dose 2.00 uM, primary screen): 0.026 log 2 fold change
Z.LYZ.NS (ISC-enriched organoids [3]; Dose 2.00 uM): 0.230
Dose.FC.LYZ.NS (ISC-enriched organoids [3]; Dose 10.00 uM, primary screen): −0.164 log 2 fold change
Z.LYZ.NS (ISC-enriched organoids [3]; Dose 10.00 uM): −1.424
SSMD.LYZ.NS (ISC-enriched organoids [3]; [8]): −0.233
SSMD.LYZ.NS (ISC-enriched organoids [3]; [9]): −0.084
SSMD.LYZ.NS (ISC-enriched organoids [3]; [10]): 0.128
SSMD.LYZ.NS (ISC-enriched organoids [3]; [11]): −0.792

COc1c(C)c(C(=O)c2ccc(N)c(C(=O)[O-])c2)n2ccccc12.[Na+] [SSR128129E]
Dose.FC.LYZ.S (log 2 fold change) (ISC-enriched organoids [1]; Dose 0.08 uM): 0.086
Dose.FC.LYZ.S (log 2 fold change) (ISC-enriched organoids [1]; Dose 0.40 uM): 0.122
Dose.FC.LYZ.S (log 2 fold change) (ISC-enriched organoids [1]; Dose 2.00 uM): 0.023
Dose.FC.LYZ.S (log 2 fold change) (ISC-enriched organoids [1]; Dose 10.00 uM): −0.095
Z.CTG (standard z score) (ISC-enriched organoids [2]; Dose 0.08 uM, primary screen): 0.210
Dose.FC.CTG (log 2 fold change) (ISC-enriched organoids [2]; Dose 0.08 uM, primary screen): 0.088
Z.CTG (standard z score) (ISC-enriched organoids [2]; Dose 0.40 uM, primary screen): 0.545
Dose.FC.CTG (log 2 fold change) (ISC-enriched organoids [2]; Dose 0.40 uM, primary screen): 0.228
Z.CTG (standard z score) (ISC-enriched organoids [2]; Dose 2.00 uM, primary screen): 0.291
Dose.FC.CTG (log 2 fold change) (ISC-enriched organoids [2]; Dose 2.00 uM, primary screen): 0.122
Z.CTG (standard z score) (ISC-enriched organoids [2]; Dose 10.00 uM, primary screen): −0.063
Dose.FC.CTG (log 2 fold change) (ISC-enriched organoids [2]; Dose 10.00 uM, primary screen): −0.026
Z.LYZ.NS (standard z score) (ISC-enriched organoids [3]; Dose 0.08 uM, primary screen): 0.807
Dose.FC.LYZ.NS (log 2 fold change) (ISC-enriched organoids [3]; Dose 0.08 uM, primary screen): 0.093
Z.LYZ.NS (standard z score) (ISC-enriched organoids [3]; Dose 0.40 uM, primary screen): 0.339
Dose.FC.LYZ.NS (log 2 fold change) (ISC-enriched organoids [3]; Dose 0.40 uM, primary screen): 0.039
Z.LYZ.NS (standard z score) (ISC-enriched organoids [3]; Dose 2.00 uM, primary screen): 0.257
Dose.FC.LYZ.NS (log 2 fold change) (ISC-enriched organoids [3]; Dose 2.00 uM, primary screen): 0.030
Z.LYZ.NS (standard z score) (ISC-enriched organoids [3]; Dose 10.00 uM, primary screen): −0.850
Dose.FC.LYZ.NS (log 2 fold change) (ISC-enriched organoids [3]; Dose 10.00 uM, primary screen): −0.098

C[C@@H]1CN(CC(=O)Nc2ccc3c(c2)Cc2cccc(-c4cc(=O)cc(N5CCOCC5)o4)c2S3)C[C@H](C)O1 [KU-60019]
Z.LYZ.S (ISC-enriched organoids [1]; [4]): 1.490
Z.LYZ.S (ISC-enriched organoids [1]; [5]): 0.474
Z.LYZ.S (ISC-enriched organoids [1]; [6]): −0.317
Z.LYZ.S (ISC-enriched organoids [1]; [7]): −1.436
SSMD.LYZ.S (ISC-enriched organoids [1]; [4]): 0.938
SSMD.LYZ.S (ISC-enriched organoids [1]; [5]): 0.312
SSMD.LYZ.S (ISC-enriched organoids [1]; [6]): −0.261
SSMD.LYZ.S (ISC-enriched organoids [1]; [7]): −0.923
Z.CTG (ISC-enriched organoids [2]; Dose 0.08 uM, primary screen, standard z score): 0.273
Z.CTG (ISC-enriched organoids [2]; Dose 0.40 uM, primary screen, standard z score): 0.094
Z.CTG (ISC-enriched organoids [2]; Dose 2.00 uM, primary screen, standard z score): 0.290
Z.CTG (ISC-enriched organoids [2]; Dose 10.00 uM, primary screen, standard z score): −1.246
SSMD.CTG (ISC-enriched organoids [2]; [8]): 0.371
SSMD.CTG (ISC-enriched organoids [2]; [9]): 0.118
SSMD.CTG (ISC-enriched organoids [2]; [10]): 0.175
SSMD.CTG (ISC-enriched organoids [2]; [11]): −0.916
SSMD.LYZ.NS (ISC-enriched organoids [3]; [8]): 0.305
SSMD.LYZ.NS (ISC-enriched organoids [3]; [9]): −0.014
SSMD.LYZ.NS (ISC-enriched organoids [3]; [10]): −0.103
SSMD.LYZ.NS (ISC-enriched organoids [3]; [11]): −0.570
